Consider five compounds from US9249123B2, “Pyridinones/pyrazinones, method of making, and method of use thereof” (Genentech, Inc., priority 2010, dated 2016).

Each structure is given as a SMILES string.

The first experiment deals with full length human wildtype Btk (Homo sapiens (Human), UniProt Q06187). Kind of experiment: Biochemical Btk Assay.
Chain of full length human wildtype Btk (Q06187 whole entry): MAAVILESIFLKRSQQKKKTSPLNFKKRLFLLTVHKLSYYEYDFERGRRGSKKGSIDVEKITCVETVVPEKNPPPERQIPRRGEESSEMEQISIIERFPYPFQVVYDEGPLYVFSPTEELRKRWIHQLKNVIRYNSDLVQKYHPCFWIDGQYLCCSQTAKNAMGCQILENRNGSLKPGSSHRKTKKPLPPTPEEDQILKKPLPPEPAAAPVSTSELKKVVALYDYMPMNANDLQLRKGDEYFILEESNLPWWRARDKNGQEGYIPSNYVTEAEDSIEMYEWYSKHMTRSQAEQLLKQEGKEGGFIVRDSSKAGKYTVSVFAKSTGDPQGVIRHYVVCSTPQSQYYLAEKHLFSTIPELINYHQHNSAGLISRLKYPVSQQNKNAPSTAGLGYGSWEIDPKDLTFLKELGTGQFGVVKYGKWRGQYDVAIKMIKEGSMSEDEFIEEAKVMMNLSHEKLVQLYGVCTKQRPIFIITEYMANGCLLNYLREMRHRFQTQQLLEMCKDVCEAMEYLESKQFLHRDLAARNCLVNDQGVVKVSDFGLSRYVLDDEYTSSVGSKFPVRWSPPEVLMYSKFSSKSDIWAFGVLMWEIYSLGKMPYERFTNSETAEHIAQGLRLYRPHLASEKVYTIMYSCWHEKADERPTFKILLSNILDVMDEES
Details: not given
On the procedure:
Formula I compounds were tested by a standard biochemical Btk Kinase Assay (Example 901). A generalized procedure for a standard biochemical Btk Kinase Assay that can be used to test Formula I compounds is as follows. […] A master mix plus Btk enzyme is prepared containing 1× Cell Signaling kinase buffer, 0.5 μM PTK Biotinylated peptide substrate 2, 0.01% BSA, and 100 ng/well (0.06 mU/well) Btk enzyme. Btk enzyme is prepared as follows: full length human wildtype Btk (accession number NM-000061) with a C-terminal V5 and 6×His tag was subcloned into pFastBac vector for making baculovirus carrying this epitope-tagged Btk. Generation of baculovirus is done based on Invitrogen's instructions detailed in its published protocol “Bac-to-Bac Baculovirus Expression Systems” (Cat. Nos. 10359-016 and 10608-016). […] The Btk protein is then purified to homogeneity using Ni-NTA column. The purity of the final protein preparation is greater than 95% based on the sensitive Sypro-Ruby staining. A solution of 200 μM ATP is prepared in water and adjusted to pH7.4 with 1N NaOH. A quantity of 1.25 μL of compounds in 5% DMSO is transferred to a 96-well ½ area Costar polystyrene plate. Compounds are tested singly and with an 11-point dose-responsive curve (starting concentration is 10 μM; 1:2 dilution). A quantity of 18.75 μL of master mix minus enzyme (as a negative control) and master mix plus enzyme is transferred to appropriate wells in 96-well ½ area costar polystyrene plate. 5 μL of 200 μM ATP is added to that mixture in the 96-well ½ area Costar polystyrene plate for final ATP concentration of 40 μM. The reaction is allowed to incubate for 1 hour at room temperature. The reaction is stopped with Perkin Elmer 1× detection buffer containing 30 mM EDTA, 20 nM SA-APC, and 1 nM PT66 Ab. The plate is read using time-resolved fluorescence with a Perkin Elmer Envision using excitation filter 330 nm, emission filter 665 nm, and 2nd emission filter 615 nm. IC50 values are subsequently calculated. Alternatively, the Lanthascreen assay can be used to evaluate Btk activity through quantification of its phosphorylated peptide product. The FRET (Fluorescence Resonance Energy Transfer) that occurs between the fluorescein on the peptide product and the terbium on the detection antibody decreases with the addition of inhibitors of Btk that reduce the phosphorylation of the peptide. […] The reaction is initiated by the addition of ATP to 25 uM (Km of ATP). After incubation for 60 minutes at room temperature, the reaction is stopped by the addition of a final concentration of 2 nM Tb-PY20 detection antibody in 60 mM EDTA for 30 minutes at room temperature. Detection is determined on a Perkin Elmer Envision with 340 nm excitation and emission at 495 nm and 520 nm. Exemplary Btk inhibition IC50 values are in Tables and 2.
`Cc1c(-c2cn(C)c(=O)c(Nc3ccc(C4C(=O)NCCN4C)cc3)n2)cccc1N1Cc2cc(C(C)(C)C)sc2C1=O` (stereo not drawn) [Compound 134, 5-(3-{2-tert-butyl-6-oxo-4H,5H,6H-thieno[2,3-c]pyrrol-5-yl}-2-methylphenyl)-1-methyl-3-{[4-(1-methyl-3-oxopiperazin-2-yl)phenyl]amino}-1,2-dihydropyrazin-2-one]: the IC50 (as a rule, the concentration at which inhibition is half-maximal) was found to be 24.7 nM.

For the compound `Cc1c(-c2cn(C)c(=O)c(Nc3ccc(C4NCCN(C)C4=O)cc3)n2)cccc1N1Cc2cc(C(C)(C)C)sc2C1=O` (stereo not drawn) [Compound 102, 2-tert-butyl-5-(2-methyl-3-(4-methyl-6-(4-(4-methyl-3-oxopiperazin-2-yl)phenylamino)-5-oxo-4,5-dihydro-pyrazin-2-yl)phenyl)-4H-thieno[2,3-c]pyrrol-6(5H)-one], 11.5 nM corresponded to half-maximal inhibition (IC50).

Turning to `CN1CCN(C)[C@@H](c2ccc(Nc3nc(-c4ccc(F)c(N5Cc6cc(C(C)(C)C)sc6C5=O)c4F)cn(C)c3=O)cc2)C1=O` [Compound 130, 5-(3-{2-tert-butyl-6-oxo-4H,5H,6H-thieno[2,3-c]pyrrol-5-yl}-2,4-difluorophenyl)-3-({4-[(2S)-1,4-dimethyl-3-oxopiperazin-2-yl]phenyl]amino)-1-methyl-1,2-dihydropyrazin-2-one], the IC50 amounted to 33.7 nM.

In turn, `CN1CCN(C)[C@@H](c2ccc(Nc3nc(-c4ccc(F)c(N5Cc6cc(C(C)(C)C)sc6C5=O)c4)cn(C)c3=O)cc2)C1=O` [Compound 131, 5-(3-{2-tert-butyl-6-oxo-4H,5H,6H-thieno[2,3-c]pyrrol-5-yl}-4-fluorophenyl)-3-({4-[(2S)-1,4-dimethyl-3-oxopiperazin-2-yl]phenyl}amino)-1-methyl-1,2-dihydropyrazin-2-one] displayed an IC50 of 47.4 nM.

Compound `Cc1c(-c2cn(C)c(=O)c(Nc3ccc(C4C(=O)NCCN4C)cc3)n2)cccc1N1Cc2cc(C(C)(C)C)sc2C1=O` (stereo not drawn) [Compound 104, 2-tert-butyl-5-(2-methyl-3-(4-methyl-6-(4-(1-methyl-3-oxopiperazin-2-yl)phenylamino)-5-oxo-4,5-dihydropyrazin-2-yl)phenyl)-4H-thieno[2,3-c]pyrrol-6(5H)-one] displayed an IC50 of 95 nM.

Another experiment relates to CD86 surface expression on CD19+/7AAD- total mouse splenocytes stimulated with IgM. Kind of experiment: CD86 Inhibition Assay. In kind it is cell-based. The following applies: Splenocyte; Balb/c mouse splenocytes, IgM stimulation, 24 hr. On the procedure: A CD86 Inhibition assay can be conducted on Formula I compounds for the inhibition of B cell activity using total mouse splenocytes purified from spleens of 8-16 week old Balb/c mice (Example 905).
A generalized procedure for a standard assay for the inhibition of B cell activity that can be used to test Formula I compounds is as follows. Total mouse splenocytes are purified from spleens of 8-16 week old Balb/c mice by red blood cell lysis (BD Pharmingen #555899). Testing compounds are diluted to 0.5% DMSO and incubated with 1.25×10^6 splenocytes in a final volume of 200 μl in flat clear bottom plates (Falcon 353072) for 60 min at 37° C. Cells are then stimulated with the addition of 15 μg/ml IgM (Jackson ImmunoResearch 115-006-020), and incubated for 24 hr at 37° C., 5% CO2. Following the 24 hr incubation, cells are transferred to conical bottom clear 96-well plates and pelleted by centrifugation at 1200×g×5 min. Cells are preblocked by CD16/CD32 (BD Pharmingen #553142), followed by triple staining with CD19-FITC (BD Pharmingen #553785), CD86-PE (BD Pharmingen #553692), and 7AAD (BD Pharmingen #51-68981E). Cells are sorted on a BD FACSCalibur and gated on the CD19^+/7AAD^− population. The levels of CD86 surface expression on the gated population is measured versus test compound concentration. Exemplary results are in Table 3.
In the case of `Cc1c(-c2cn(C)c(=O)c(Nc3ccc(C4C(=O)NCCN4C)cc3)n2)cccc1N1Cc2cc(C(C)(C)C)sc2C1=O` (stereo not drawn) [Compound 134, 5-(3-{2-tert-butyl-6-oxo-4H,5H,6H-thieno[2,3-c]pyrrol-5-yl}-2-methylphenyl)-1-methyl-3-{[4-(1-methyl-3-oxopiperazin-2-yl)phenyl]amino}-1,2-dihydropyrazin-2-one], the EC50 (commonly the concentration at which the effect is half-maximal) worked out at 1900 nM.
